# Key:
# Assay type in all cases: functional
# Candida tropicalis [1] = experiment: Antifungal activity against Candida tropicalis after 24 hrs by two-fold broth microdilution assay
# Candida albicans [2] = experiment: Antifungal activity against Candida albicans ATCC 90023 after 24 hrs by two-fold broth microdilution assay; details: ATCC 90023, 24 h
# Aspergillus fumigatus [3] = experiment: Antifungal activity against Aspergillus fumigatus after 24 hrs by two-fold broth microdilution assay
# Candida albicans [4] = experiment: Antifungal activity against Candida albicans after 24 hrs by two-fold broth microdilution assay
# Candida albicans [5] = experiment: Antifungal activity against Candida albicans assessed as ratio of MIC after and before 10 serial passages
# Candida parapsilosis [6] = experiment: Antifungal activity against Candida parapsilosis ATCC 22019 after 24 hrs by two-fold broth microdilution assay; details: Lodderomyces parapsilosis, ATCC 22019, 24 h
# Candida tropicalis [7] = experiment: Ratio of MFC to MIC for Candida tropicalis
# Candida albicans [8] = experiment: Fungicidal activity against Candida albicans incubated for 24 hrs followed by plating onto tryptic soy agar medium and measured after 24 hrs by broth microdilution method
# Staphylococcus aureus [9] = experiment: Antibacterial activity against Staphylococcus aureus ATCC 29213 after 24 hrs by micro broth dilution method; details: ATCC 29213, 24 h
# Aspergillus fumigatus [10] = experiment: Synergistic antifungal activity against Aspergillus fumigatus assessed as FIC index after 18 hrs in presence of fluconazole by checkerboard assay
# Staphylococcus aureus [11] = experiment: Antibacterial activity against Staphylococcus aureus ATCC 25923 after 24 hrs by micro broth dilution method; details: ATCC 25923, 24 h
# Acinetobacter baumannii = experiment: Antibacterial activity against Acinetobacter baumannii after 24 hrs by micro broth dilution method
# Escherichia coli [12] = experiment: Antibacterial activity against Escherichia coli after 24 hrs by micro broth dilution method
# Staphylococcus aureus [13] = experiment: Antibacterial activity against methicillin-resistant Staphylococcus aureus after 24 hrs by micro broth dilution method
# Staphylococcus aureus [14] = experiment: Antibacterial activity against Staphylococcus aureus after 24 hrs by micro broth dilution method
# Candida albicans [15] = experiment: Synergistic antifungal activity against Candida albicans after 18 hrs in presence of fluconazole by checkerboard assay
# Candida albicans [16] = experiment: Synergistic antifungal activity against Candida albicans assessed as FIC index after 18 hrs in presence of fluconazole by checkerboard assay
# Candida tropicalis [17] = experiment: Synergistic antifungal activity against Candida tropicalis after 18 hrs in presence of fluconazole by checkerboard assay
# Escherichia coli [18] = experiment: Antibacterial activity against Escherichia coli ATCC 25922 after 24 hrs by micro broth dilution method; details: ATCC 25922, 24 h
# Aspergillus fumigatus [19] = experiment: Synergistic antifungal activity against Aspergillus fumigatus after 18 hrs in presence of fluconazole by checkerboard assay
# Pseudomonas aeruginosa [20] = experiment: Antibacterial activity against Pseudomonas aeruginosa ATCC 27853 after 24 hrs by micro broth dilution method; details: ATCC 27853, 24 h
# Candida tropicalis [21] = experiment: Synergistic antifungal activity against Candida tropicalis assessed as FIC index after 18 hrs in presence of fluconazole by checkerboard assay
# Candida parapsilosis [22] = experiment: Ratio of MFC to MIC for Candida parapsilosis ATCC 22019
# Klebsiella pneumoniae = experiment: Antibacterial activity against Klebsiella pneumoniae after 24 hrs by micro broth dilution method
# Enterococcus faecalis = experiment: Antibacterial activity against Enterococcus faecalis after 24 hrs by micro broth dilution method
# Candida albicans [23] = experiment: Ratio of MFC to MIC for Candida albicans
# Candida tropicalis [24] = experiment: Fungicidal activity against Candida tropicalis incubated for 24 hrs followed by plating onto tryptic soy agar medium and measured after 24 hrs by broth microdilution method
# Pseudomonas aeruginosa [25] = experiment: Antibacterial activity against Pseudomonas aeruginosa after 24 hrs by micro broth dilution method
# Candida parapsilosis [26] = experiment: Fungicidal activity against Candida parapsilosis ATCC 22019 incubated for 24 hrs followed by plating onto tryptic soy agar medium and measured after 24 hrs by broth microdilution method; details: Lodderomyces parapsilosis, ATCC 22019, 24 h
SMILES,MIC (Candida tropicalis [1]) [µg/mL],MIC (Candida albicans [2]) [µg/mL],MIC (Aspergillus fumigatus [3]) [µg/mL],MIC (Candida albicans [4]) [µg/mL],MIC (Candida parapsilosis [6]) [µg/mL],Ratio (Candida tropicalis [7]),MFC (Candida albicans [8]) [µg/mL],MIC (Staphylococcus aureus [9]) [µg/mL],MIC (Staphylococcus aureus [11]) [µg/mL],MIC (Acinetobacter baumannii) [µg/mL],MIC (Escherichia coli [12]) [µg/mL],MIC (Staphylococcus aureus [13]) [µg/mL],MIC (Staphylococcus aureus [14]) [µg/mL],MIC (Escherichia coli [18]) [µg/mL],MIC (Pseudomonas aeruginosa [20]) [µg/mL],Ratio (Candida parapsilosis [22]),MIC (Klebsiella pneumoniae) [µg/mL],MIC (Enterococcus faecalis) [µg/mL],Ratio (Candida albicans [23]),MIC (Pseudomonas aeruginosa [25]) [µg/mL],other results
OC(Cn1cncn1)(Cn1cncn1)c1ccc(F)cc1F [FLUCONAZOLE],8,2,256,4,4,,,,,,,,,,,,,,,,Ratio (Candida albicans [5]): 8
OC(Cn1cncn1)(Cn1c2ccccc2c2ccc(Br)cc21)c1ccc(F)cc1F (stereo not given),4,16,64,16,16,1,16,32,16,64,64,16,64,64,128,2,128,32,1,64,fractional inhibitory concentration index (FICI) (Aspergillus fumigatus [10]): 0.32; MIC (Candida albicans [15]): 4 µg/mL; fractional inhibitory concentration index (FICI) (Candida albicans [16]): 1.25; MIC (Candida tropicalis [17]): 4 µg/mL; MIC (Aspergillus fumigatus [19]): 16 µg/mL; fractional inhibitory concentration index (FICI) (Candida tropicalis [21]): 1.5; MFC (Candida tropicalis [24]): 4 µg/mL; MFC (Candida parapsilosis [26]): 32 µg/mL
CCn1cc(C(=O)O)c(=O)c2cc(F)c(N3CCNCC3)cc21 [NORFLOXACIN],,,,,,,,8,1,8,16,8,2,8,0.5,,4,4,,2,
OC(Cn1cncn1)(Cn1c2ccccc2c2ccccc21)c1ccc(F)cc1F (stereo not given),8,16,128,32,8,2,32,32,32,128,128,64,64,128,256,4,64,16,1,128,fractional inhibitory concentration index (FICI) (Aspergillus fumigatus [10]): 0.37; MIC (Candida albicans [15]): 2 µg/mL; fractional inhibitory concentration index (FICI) (Candida albicans [16]): 0.56; MIC (Candida tropicalis [17]): 4 µg/mL; MIC (Aspergillus fumigatus [19]): 32 µg/mL; fractional inhibitory concentration index (FICI) (Candida tropicalis [21]): 1; MFC (Candida tropicalis [24]): 16 µg/mL; MFC (Candida parapsilosis [26]): 32 µg/mL
OC(Cn1cncn1)(Cn1c2ccccc2c2cc(Br)ccc21)c1ccc(F)cc1F (stereo not given),4,32,64,8,8,8,16,16,16,64,32,16,32,32,128,1,128,32,2,64,fractional inhibitory concentration index (FICI) (Aspergillus fumigatus [10]): 0.32; MIC (Candida albicans [15]): 2 µg/mL; fractional inhibitory concentration index (FICI) (Candida albicans [16]): 0.75; MIC (Candida tropicalis [17]): 4 µg/mL; MIC (Aspergillus fumigatus [19]): 16 µg/mL; fractional inhibitory concentration index (FICI) (Candida tropicalis [21]): 1.5; MFC (Candida tropicalis [24]): 32 µg/mL; MFC (Candida parapsilosis [26]): 8 µg/mL
Cc1ccc(C(O)(Cn2cncn2)Cn2c3ccc(Br)cc3c3cc(Br)ccc32)cc1 (stereo not given),32,128,64,64,32,,,256,128,256,256,128,256,16,64,,256,64,,256,
OC(Cn1cncn1)(Cn1c2ccc(Br)cc2c2cc(Br)ccc21)c1ccc(Cl)cc1 (stereo not given),32,64,64,8,32,,,16,32,256,128,16,32,16,16,,256,16,,256,
OC(Cn1cncn1)(Cn1ccc2ccccc21)c1ccc(F)cc1F (stereo not given),64,128,32,32,64,,,64,32,128,64,32,128,32,128,,128,64,,64,
CC(C)(C)c1ccc2c(c1)c1cc(C(C)(C)C)ccc1n2CC(O)(Cn1cncn1)c1ccc(F)cc1F (stereo not given),64,128,256,64,64,,,256,32,256,128,64,256,128,64,,32,128,,128,
OC(Cn1cncn1)(Cn1c2ccc(Br)cc2c2cc(Br)ccc21)c1ccc(F)cc1 (stereo not given),16,64,128,8,8,2,32,16,32,256,64,64,64,16,64,2,256,64,4,128,MFC (Candida tropicalis [24]): 32 µg/mL; MFC (Candida parapsilosis [26]): 16 µg/mL
OC(Cn1cncn1)(Cn1c2ccc(Br)cc2c2cc(Br)ccc21)c1ccc(Cl)c(Cl)c1 (stereo not given),8,32,32,4,16,1,16,32,16,128,64,8,64,32,32,2,128,16,4,64,MFC (Candida tropicalis [24]): 8 µg/mL; MFC (Candida parapsilosis [26]): 32 µg/mL
OC(Cn1cncn1)(Cn1c2ccccc2c2cc(I)ccc21)c1ccc(F)cc1F (stereo not given),16,64,64,16,32,,,16,16,128,256,32,128,32,256,,256,16,,128,

# From ChEMBL document CHEMBL4270534, “Novel carbazole-triazole conjugates as DNA-targeting membrane active potentiators against clinical isolated fungi” (Eur J Med Chem, 2018)
